According to a melting point compilation (Tetko et al.; mined from patent text by program, amines drawn as free bases though some values may be those of a salt):
Residues, ends and D or L forms follow the SMILES beside them.

Cc1ccc(C(=O)OCC2OC(n3cc(C#C[Si](C)(C)C)c(=O)[nH]c3=O)CC2F)cc1 (stereo unspecified) gave a melting point of 130 °C. Molecule O=C1CCC(c2ccccc2)(c2ccccc2)C(C[N+](=O)[O-])C1 (racemic) has a melting point of 164 °C. In the case of O=S(=O)(NC1CCC(O)CC1)c1cccc2ccccc12 (stereo unspecified), the melting point is reported as 174 °C. Molecule O=Cc1ccc(-c2ccc3ncnc(Nc4ccc(OCc5cccc(F)c5)c(Cl)c4)c3c2)s1 has a melting point of 252 °C. With CC(C)n1nc(-c2c(Oc3ccccc3)nc(N)nc2-c2ccccc2)ccc1=O the melting point was 218 to 221 °C. Work on O=C(O)COc1ccc(C=CC(=O)c2ccc(C(=O)O)cc2)cc1 yielded a melting point of 312 to 314 °C. Work on c1ccc(Nc2nccc(-c3ccc(-c4ccc(N(c5ccccc5)c5ccccc5)cc4)cc3)n2)cc1 yielded a melting point greater than 300 °C. For CCCc1c(COc2ccc(Cc3nnnn3CC(=O)O)cc2)ccc(C(C)=O)c1O, the melting point was 205 to 210 °C. In the case of CCOc1ccc(-c2nc(C=O)cs2)cc1OCC, the melting point is reported as 84 to 87 °C. With COCc1cc(C(=O)NC(C)(C)C)c(C(=O)OC)cn1 the melting point was 138 to 142 °C. In the case of C1=CCC2=C3C(=NC2=C1)SCCC3CNCc1ccccc1 (stereo unspecified), the melting point is reported as 118 °C. For CCCn1c(=O)c2[nH]c(C3CCCO3)nc2n(CCC)c1=O (stereo unspecified), the melting point was 155 to 158 °C. In the case of C#CCNC1CCc2ccc([N+](=O)[O-])cc21 (stereo unspecified), the melting point is reported as 37 to 39 °C. In the case of C#Cc1cc2c(Nc3ccc(OCc4cccc(F)c4)c(Cl)c3)ncnc2s1, the melting point is reported as 197 °C. In the case of CCN(CC)CCOc1ccc(NC(=O)CC(=O)c2ccc(-c3ccccc3)cc2)cc1Cl, the melting point is reported as 148 to 151 °C. Work on COCC(C)Oc1ccc(CSc2cnn(C(C)(C)C)c(=O)c2Cl)cc1 (stereo unspecified) yielded a melting point of 51 to 52 °C. With Cc1ccc(S(=O)(=O)N2CCN(C(=O)c3ccc(Nc4ccnc5cc(C(F)(F)F)ccc45)cc3)CC2)cc1 the melting point was 215 to 217 °C. In the case of CC(C)CN(CCc1c[nH]c2ccccc12)C(=O)CCCC(=O)O, the melting point is reported as 140 to 141 °C. With CC1(C)CC(c2cccc(C(F)(F)F)c2)c2ccc(O)cc2O1 (stereo unspecified) the melting point was 63 to 68 °C. Work on O=C(O)c1cccc(OCCNC(=O)C2Cc3ccccc3N2S(=O)(=O)c2ccc(-c3cccc(C(F)(F)F)c3)cc2)c1 (stereo unspecified) yielded a melting point of 85 to 92 °C. For COc1cc2c(Nc3cccc(C)c3)ncnc2cc1OC(C)C, the melting point was 218 to 221 °C. With COc1ccc(C23CC(c4ccccc4)C(=O)N2CCN3)cc1 (stereo unspecified) the melting point was 150 °C. For COCc1cc(Cl)c2cccc(OC)c2n1, the melting point was 67 to 69 °C. With Cn1c2ccccc2c(=O)n2nc(C#N)cc12 the melting point was 307 to 310 °C. CS(=O)(=O)c1ccc(-c2cnn(CC(F)(F)F)c(=O)c2OCc2ccccc2)cc1 showed a melting point of 121 to 123 °C. In the case of COc1cccc(F)c1-c1ccc(NC(=O)OC(C)(C)C)c([N+](=O)[O-])c1, the melting point is reported as 65 to 68 °C. In the case of C[C@@H](NC(=O)[C@H](Cc1ccc(OCc2ccccc2)cc1)NC(=O)[C@@H](N)COCc1ccccc1)C(=O)O, the melting point is reported as 121 to 122 °C. Cc1cccc(Nc2cc(Cl)nc(SCC(=O)NC(C)CO)n2)c1C (stereo unspecified) gave a melting point of 170 to 172 °C. Molecule O=c1c(-c2ccc(Cl)cc2)c2c(cn1CO)Sc1ccccc1N2 has a melting point greater than 300 °C. Work on O=C(Cc1ccc2c(c1)OCO2)Nc1cc(C2CC2)n[nH]1 yielded a melting point of 174 to 176 °C. Molecule CCCC(C)(COS(N)(=O)=O)COS(N)(=O)=O has a melting point of 92 to 94 °C. For CC(C)(C)OC(=O)N1CCC(C#N)(c2ccccc2Cl)CC1, the melting point was 165 to 166 °C. O=C(Cn1ccnc1)c1cccc(-c2ccccc2)c1 showed a melting point of 128 to 129 °C. Nc1ccc(Cl)cc1Cc1ccccc1F showed a melting point of 175 to 181 °C. In the case of CCCCCSC1=C(SCCCCC)SC(=C2SC3=C(CN(S(=O)(=O)c4ccc(C)cc4)C3)S2)S1, the melting point is reported as 136 to 137 °C. In the case of CCCn1nc2c(N)nc3c(c2c1CC(C)(C)S(C)(=O)=O)CCCC3, the melting point is reported as 209 to 211 °C. Cc1ccc2c(c1C#N)c(Sc1ccc(Cl)cc1)c(C)n2CC(=O)O showed a melting point of 237 to 238 °C. With COc1nc(Cl)nc(NC(=O)NS(=O)(=O)c2ccccc2OC(F)F)n1 the melting point was 167 to 168 °C. Work on CCCOCc1nc2nccnc2c(=O)[nH]1 yielded a melting point of 158 to 160 °C. In the case of C[C@@H](n1cnc2cc(-c3ccc(C(N)=O)cc3)sc2c1=O)[C@](O)(Cn1cncn1)c1ccc(F)cc1F, the melting point is reported as 280 to 285 °C. In the case of CCCNC(=O)C(C)Cc1ccc2cccc(Cc3ccc(C(=O)NS(=O)(=O)c4ccccc4)cc3OC)c2c1 (stereo unspecified), the melting point is reported as 214 to 218 °C. Molecule COc1ncccc1-c1nc2c(N[C@H]3[C@@H](C(N)=O)[C@@H]4C=C[C@H]3C4)c(Br)cnc2[nH]1 has a melting point of 201 °C. With CN1CCc2c(Cl)csc2C(c2ccccc2)C1 (stereo unspecified) the melting point was 67 °C. With CCc1n[nH]c(CC)c1CCCCCCOc1ccc(OC)cc1[N+](=O)[O-] the melting point was 103 to 105 °C. For CCCCCS(=O)(=O)NC(=O)CCc1ccc(OCCCOC)cc1Oc1ncc(C(F)(F)F)cc1Cl, the melting point was 115 °C. In the case of COC(=N)c1ccc(-c2cc3ncn([C@H](C)[C@](O)(Cn4cncn4)c4ccc(F)cc4F)c(=O)c3s2)cc1, the melting point is reported as 194 to 201 °C. With O=C(N1CCN(c2ccccc2)CC1)N1CCc2ccccc2CO1 the melting point was 123 to 125 °C. CCCCCS(=O)(=O)NC(=O)/C=C/c1ccc(OCCOC)cc1OCc1ccc(Cl)cc1Cl showed a melting point of 138 °C. CC(=O)Nc1nc(C=O)cs1 showed a melting point of 196 to 199 °C. In the case of COP(=O)(CC(O)c1c(C(C)C)nn(-c2ccccc2)c1-c1ccc(F)cc1)OC (stereo unspecified), the melting point is reported as 126 to 128 °C. CCOC(=O)C(C(=O)OCC)c1c(Br)cnc2c([N+](=O)[O-])cccc12 showed a melting point of 94 to 95 °C. In the case of O=C(Nc1cccc(C(F)(F)F)c1)c1coc2cc(Oc3cc(CO)ncn3)ccc12, the melting point is reported as 181 to 182 °C. With COC(=O)C(Cc1ccccc1)NC(=O)C(CC(=O)O)NC(=O)CN (stereo not drawn) (H-Gly-Asp-Phe-OMe; configuration not given here) the melting point was 233 to 235 °C. CNC(=O)c1cc2c(nc(C)n2C)c2c1CCC(OC)(c1ccccc1C)O2 (stereo unspecified) showed a melting point of 257 to 261 °C. COc1ccc2nc(Nc3cc(C)cs3)[nH]c2c1 gave a melting point of 143 to 146 °C. CNC1=NN(C(=O)C(C)(C)C)C(C)(C)S1 gave a melting point of 162 to 164 °C. For CC12Cc3cnn(-c4ccc(F)cc4)c3C=C1CCC1C2=CCCC1c1ccccn1 (stereo unspecified), the melting point was 154 to 156 °C. In the case of Cc1cccc(NC(=O)NC2N=C(c3ccccc3F)c3ccccc3N(Cc3nc4ccccc4[nH]3)C2=O)c1 (racemic), the melting point is reported as 165 to 167 °C. In the case of O=C(O)c1ccc(F)c(Oc2ccccc2)c1, the melting point is reported as 226 to 227 °C. For CCOCc1nc2c(N)nc3ccc(OCc4ccccc4)cc3c2n1CC(C)(C)NS(C)(=O)=O, the melting point was 90 °C. For Nc1nc(NC2CC2)c2sc(=O)n(C3OC(CO)C(O)C3O)c2n1 (stereo unspecified), the melting point was greater than 100 °C. In the case of CCCCCC(CC(=O)Nc1cc(CO)ccc1C(C)(C)C)c1ccccc1C(F)(F)F (stereo unspecified), the melting point is reported as 147 to 148 °C. In the case of COCOc1cccc2c1CCC2=O, the melting point is reported as 51 to 54 °C. Cc1ccc([N+](=O)[O-])c(C=C2NC(=O)NC2=O)c1C gave a melting point of 293 to 295 °C. Cc1cc(-c2ccc(C(F)(F)F)cc2)cn2c(-c3nc(-c4ccc(S(N)(=O)=O)cc4)no3)cnc12 showed a melting point of 290 °C. Cc1sc(C(=O)OCc2ccccc2)cc1NC(=O)Cc1ccccc1 gave a melting point of 173 to 174 °C. Cc1nc(N2CCOCC2)nc(C)c1-c1cccc2c1OC[C@H]2Nc1ccc2c(c1)OC[C@H]2CC(=O)O gave a melting point of 168 °C. In the case of CC(=O)Nc1ccc(C(=O)N2CC3CC(CN(Cc4ccc(Cl)cc4)C3)C2)cc1, the melting point is reported as 181 °C. O=C(c1ccc(Br)s1)N(Cc1cccc(O)c1)C1CC1 showed a melting point of 128 °C. COc1ccc(-c2c(Cl)c(CN3C(=O)CCC3=O)nc3sc4c(c23)CCS(=O)(=O)C4)cc1 showed a melting point of 300 °C. Oc1ccc(-c2nn(-c3cccc(F)c3)c3cc(O)ccc23)c(O)c1 showed a melting point greater than 200 °C. In the case of COc1ccc(-c2c[nH]c(-c3nc(-c4ccco4)c(C(=O)C4CCOCC4)s3)n2)cc1, the melting point is reported as 178 to 180 °C. Molecule CCC(=O)N=C(NC(=O)OC)Nc1cc(Oc2ccccc2)ccc1NC(C)=O has a melting point of 161 to 163 °C. Work on CN1C(=O)C2C3C=CC(C3)C2(c2cccc(Cl)c2)C1=O (stereo unspecified) yielded a melting point of 98 to 100 °C. With Fc1ccc(/C=C/C2=CCN(Cc3c[nH]c4ncccc34)CC2)cc1F the melting point was 208 to 210 °C. In the case of CCC1(C)OC(c2ccc(S(N)(=O)=O)cc2)=C(c2ccccc2)C1=O (stereo unspecified), the melting point is reported as 153 to 154 °C. In the case of CN(C#N)C1CN(C(=O)Nc2ccc(C(F)(F)F)cc2)N=C1c1ccc(Cl)cc1 (stereo unspecified), the melting point is reported as 216 to 217 °C. Work on CCCn1nc(-c2ccc(OC)cc2)c2cccc(-c3ccccc3)c21 yielded a melting point of 58 to 59 °C. Work on NC(=O)N1C(=O)C(C(=O)c2ccco2)c2ncc(Cl)cc21 (stereo unspecified) yielded a melting point greater than 250 °C. Work on Cc1ccc(F)cc1-n1c(CF)nc2ccc(N)cc2c1=O yielded a melting point of 174 to 176 °C. For C#CC(C)N(C)C(=O)Nc1ccc(Oc2cccc(Cl)n2)cc1 (stereo unspecified), the melting point was 140 to 142 °C. For COc1cc(N)c(Cl)cc1C(=O)N[C@H]1CCN(CCNc2nccs2)C[C@H]1OC (relative stereo), the melting point was 141 °C. Molecule Clc1ccc(N2CCN(Cc3n[nH]c4ccccc34)CC2)cc1 has a melting point of 223 to 224 °C. With CC(C)(Cn1cnc2c(N)nc3ccccc3c21)CC1(C)OCCO1 the melting point was 153 to 155 °C. Work on CS(=O)(=O)Nc1ccc(C#N)cc1C(O)c1ccc(F)cc1F (stereo unspecified) yielded a melting point of 133 to 135 °C. For CCCCCC(=O)NCCCC(=NNC(N)=S)c1ccccc1, the melting point was 125 to 127 °C. Molecule COc1cccc(-c2ccccc2C(=O)Nc2ccc(Cl)cc2)c1 has a melting point of 123 to 124 °C. For CNC(=O)C(C)NC(=O)OC(C)(C)C (stereo unspecified), the melting point was 117 to 118 °C. For CCc1ccc(-c2ncccc2S(=O)(=O)Nc2ncc(C)nc2OC)cc1, the melting point was 73 °C. Molecule C#Cc1cccc(Oc2ccc([N+](=O)[O-])c([N+](=O)[O-])c2)c1 has a melting point of 68 to 69 °C. For CC(C)(Sc1ccncc1)C(=O)O, the melting point was 190 to 192 °C. Work on Cc1ccc2c(=O)n(CCCN3CC=C(c4ccc(Cl)cc4)CC3)c(=O)[nH]c2c1 yielded a melting point of 199 to 201 °C. With CN(C)CCc1ccc(N)c2[nH]ncc12 the melting point was 125 °C. O=C(/C=C/c1cccc(S(=O)(=O)N2CCN(c3cccc([N+](=O)[O-])c3)CC2)c1)NO showed a melting point of 162 °C. In the case of CCCn1c(-c2ccccc2)nc2cc(CO)ccc21, the melting point is reported as 113 °C. In the case of O=C(O)C1=Cc2cc(OC(F)(F)F)ccc2NC1C(F)(F)F (stereo unspecified), the melting point is reported as 128 to 129 °C.
